Test results as given in ChEMBL document CHEMBL3611972, “Leishmanicidal, antiproteolytic, and mutagenic evaluation of alkyltriazoles and alkylphosphocholines” (Eur J Med Chem, 2015).
pIC50: −log10 of the molar value.

Tests used:
Salmonella typhimurium [1] = experiment: Mutagenicity in Salmonella typhimurium TA98 assessed as mutagenicity index at 1454.55 uM/plate incubated for 90 mins at 37 degC in absence of liver S9 fractions by Ames test relative to control; type: toxicity, organism-based; settings: salmonella enterica subsp. enterica serovar typhimurium, 1.5 h
Salmonella typhimurium [2] = experiment: Mutagenicity in Salmonella typhimurium TA98 assessed as mutagenicity index at 905.66 uM/plate incubated for 90 mins at 37 degC in presence of liver S9 fractions by Ames test relative to control; type: toxicity, organism-based; settings: salmonella enterica subsp. enterica serovar typhimurium, s9, 1.5 h
Salmonella typhimurium [3] = experiment: Mutagenicity in Salmonella typhimurium TA98 assessed as mutagenicity index at 1454.55 uM/plate incubated for 90 mins at 37 degC in presence of liver S9 fractions by Ames test relative to control; type: toxicity, organism-based; settings: salmonella enterica subsp. enterica serovar typhimurium, s9, 1.5 h
Salmonella typhimurium [4] = experiment: Mutagenicity in Salmonella typhimurium TA100 assessed as mutagenicity index at 1185.19 uM/plate incubated for 90 mins at 37 degC in absence of liver S9 fractions by Ames test relative to control; type: toxicity, organism-based; settings: salmonella enterica subsp. enterica serovar typhimurium, 1.5 h
Salmonella typhimurium [5] = experiment: Mutagenicity in Salmonella typhimurium TA100 assessed as mutagenicity index at 1454.55 uM/plate incubated for 90 mins at 37 degC in absence of liver S9 fractions by Ames test relative to control; type: toxicity, organism-based; settings: salmonella enterica subsp. enterica serovar typhimurium, 1.5 h
Salmonella typhimurium [6] = experiment: Mutagenicity in Salmonella typhimurium TA100 assessed as mutagenicity index at 905.66 uM/plate incubated for 90 mins at 37 degC in presence of liver S9 fractions by Ames test relative to control; type: toxicity, organism-based; settings: salmonella enterica subsp. enterica serovar typhimurium, s9, 1.5 h
Salmonella typhimurium [7] = experiment: Mutagenicity in Salmonella typhimurium TA97a assessed as mutagenicity index at 313.73 uM/plate incubated for 90 mins at 37 degC in absence of liver S9 fractions by Ames test relative to control; type: toxicity, organism-based; settings: salmonella enterica subsp. enterica serovar typhimurium, 1.5 h
Salmonella typhimurium [8] = experiment: Mutagenicity in Salmonella typhimurium TA97a assessed as mutagenicity index at 905.66 uM/plate incubated for 90 mins at 37 degC in absence of liver S9 fractions by Ames test relative to control; type: toxicity, organism-based; settings: salmonella enterica subsp. enterica serovar typhimurium, 1.5 h
Salmonella typhimurium [9] = experiment: Mutagenicity in Salmonella typhimurium TA97a assessed as mutagenicity index at 1185.19 uM/plate incubated for 90 mins at 37 degC in absence of liver S9 fractions by Ames test relative to control; type: toxicity, organism-based; settings: salmonella enterica subsp. enterica serovar typhimurium, 1.5 h
Salmonella typhimurium [10] = experiment: Mutagenicity in Salmonella typhimurium TA97a assessed as mutagenicity index at 1185.19 uM/plate incubated for 90 mins at 37 degC in presence of liver S9 fractions by Ames test relative to control; type: toxicity, organism-based; settings: salmonella enterica subsp. enterica serovar typhimurium, s9, 1.5 h
Salmonella typhimurium [11] = experiment: Mutagenicity in Salmonella typhimurium TA102 assessed as mutagenicity index at 616.38 uM/plate incubated for 90 mins at 37 degC in presence of liver S9 fractions by Ames test relative to control; type: toxicity, organism-based; settings: salmonella enterica subsp. enterica serovar typhimurium, s9, 1.5 h
Salmonella typhimurium [12] = experiment: Mutagenicity in Salmonella typhimurium TA102 assessed as mutagenicity index at 1454.55 uM/plate incubated for 90 mins at 37 degC in presence of liver S9 fractions by Ames test relative to control; type: toxicity, organism-based; settings: salmonella enterica subsp. enterica serovar typhimurium, s9, 1.5 h
[13] = Mutagenicity in CHOK1 cells assessed as induction of chromosomal DNA mutation by measuring micronuclei level at 14.51 to 58.04 incubated for 3 hrs by cytokinesis-block micronucleus assay; type: toxicity, cell-based, Cricetulus griseus; settings: chinese hamster, cho-k1, 3 h
Leishmania amazonensis [14] = experiment: microbe, parasite or virus in culture; type: functional, organism-based; settings: MHOM/BR/71973/M2269, 72 h
Description: Leishmanicidal activity against Leishmania amazonensis MHOM/BR/71973/M2269 promastigotes assessed as reduction in surviving parasites incubated for 72 hrs by Neubauer's chamber based cell counting method

Leishmania amazonensis [15] = experiment: Leishmanicidal activity against Leishmania amazonensis MHOM/BR/71973/M2269 amastigotes infected in mouse peritoneal macrophages assessed as reduction in surviving parasites incubated for 72 hrs by Giemsa staining based optical light microscopy; type: functional, organism-based; settings: MHOM/BR/71973/M2269, 72 h
[16] = Cytotoxicity against mouse peritoneal macrophages assessed as reduction in cell viability incubated for 72 hrs by MTT assay; type: cell-based, Peritoneal macrophage cell
[17] = Selectivity index, ratio of CC50 for mouse peritoneal macrophages to IC50 for Leishmania amazonensis MHOM/BR/71973/M2269 amastigotes infected in mouse peritoneal macrophages; type: functional
[18] = Inhibition of Leishmania mexicana cysteine protease r-CPB2.8 using Z-FR-AMC fluorogenic substrate by spectrofluorometry
[19] = Mutagenicity in CHOK1 cells assessed as induction of chromosomal DNA mutation by measuring nuclear division index level at 6.41 to 25.63 incubated for 3 hrs by fluorescence microscopy; type: toxicity, cell-based, Cricetulus griseus; settings: chinese hamster, cho-k1, 3 h
Salmonella typhimurium [20] = experiment: Mutagenicity in Salmonella typhimurium TA98 assessed as mutagenicity index at 296.15 uM/plate incubated for 90 mins at 37 degC in absence of liver S9 fractions by Ames test relative to untreated control; type: toxicity, organism-based; settings: salmonella enterica subsp. enterica serovar typhimurium, 1.5 h
Salmonella typhimurium [21] = experiment: Mutagenicity in Salmonella typhimurium TA98 assessed as mutagenicity index at 435.85 uM/plate incubated for 90 mins at 37 degC in absence of liver S9 fractions by Ames test relative to untreated control; type: toxicity, organism-based; settings: salmonella enterica subsp. enterica serovar typhimurium, 1.5 h
Salmonella typhimurium [22] = experiment: Mutagenicity in Salmonella typhimurium TA98 assessed as mutagenicity index at 700.00 uM/plate incubated for 90 mins at 37 degC in absence of liver S9 fractions by Ames test relative to untreated control; type: toxicity, organism-based; settings: salmonella enterica subsp. enterica serovar typhimurium, 1.5 h
Salmonella typhimurium [23] = experiment: Mutagenicity in Salmonella typhimurium TA98 assessed as mutagenicity index at 150.98 uM/plate incubated for 90 mins at 37 degC in presence of liver S9 fractions by Ames test relative to untreated control; type: toxicity, organism-based; settings: salmonella enterica subsp. enterica serovar typhimurium, s9, 1.5 h
Salmonella typhimurium [24] = experiment: Mutagenicity in Salmonella typhimurium TA98 assessed as mutagenicity index at 435.85 uM/plate incubated for 90 mins at 37 degC in presence of liver S9 fractions by Ames test relative to untreated control; type: toxicity, organism-based; settings: salmonella enterica subsp. enterica serovar typhimurium, s9, 1.5 h
Salmonella typhimurium [25] = experiment: Mutagenicity in Salmonella typhimurium TA98 assessed as mutagenicity index at 570.37 uM/plate incubated for 90 mins at 37 degC in presence of liver S9 fractions by Ames test relative to untreated control; type: toxicity, organism-based; settings: salmonella enterica subsp. enterica serovar typhimurium, s9, 1.5 h
Salmonella typhimurium [26] = experiment: Mutagenicity in Salmonella typhimurium TA100 assessed as mutagenicity index at 700.00 uM/plate incubated for 90 mins at 37 degC in presence of liver S9 fractions by Ames test relative to untreated control; type: toxicity, organism-based; settings: salmonella enterica subsp. enterica serovar typhimurium, s9, 1.5 h
Salmonella typhimurium [27] = experiment: Mutagenicity in Salmonella typhimurium TA97a assessed as mutagenicity index at 296.15 uM/plate incubated for 90 mins at 37 degC in presence of liver S9 fractions by Ames test relative to untreated control; type: toxicity, organism-based; settings: salmonella enterica subsp. enterica serovar typhimurium, s9, 1.5 h
Salmonella typhimurium [28] = experiment: Mutagenicity in Salmonella typhimurium TA97a assessed as mutagenicity index at 435.85 uM/plate incubated for 90 mins at 37 degC in presence of liver S9 fractions by Ames test relative to untreated control; type: toxicity, organism-based; settings: salmonella enterica subsp. enterica serovar typhimurium, s9, 1.5 h
Salmonella typhimurium [29] = experiment: Mutagenicity in Salmonella typhimurium TA102 assessed as mutagenicity index at 150.98 uM/plate incubated for 90 mins at 37 degC in absence of liver S9 fractions by Ames test relative to untreated control; type: toxicity, organism-based; settings: salmonella enterica subsp. enterica serovar typhimurium, 1.5 h
Salmonella typhimurium [30] = experiment: Mutagenicity in Salmonella typhimurium TA102 assessed as mutagenicity index at 150.98 uM/plate incubated for 90 mins at 37 degC in presence of liver S9 fractions by Ames test relative to untreated control; type: toxicity, organism-based; settings: salmonella enterica subsp. enterica serovar typhimurium, s9, 1.5 h
Salmonella typhimurium [31] = experiment: Mutagenicity in Salmonella typhimurium TA102 assessed as mutagenicity index at 435.85 uM/plate incubated for 90 mins at 37 degC in presence of liver S9 fractions by Ames test relative to untreated control; type: toxicity, organism-based; settings: salmonella enterica subsp. enterica serovar typhimurium, s9, 1.5 h
Salmonella typhimurium [32] = experiment: Mutagenicity in Salmonella typhimurium TA102 assessed as mutagenicity index at 700.00 uM/plate incubated for 90 mins at 37 degC in presence of liver S9 fractions by Ames test relative to untreated control; type: toxicity, organism-based; settings: salmonella enterica subsp. enterica serovar typhimurium, s9, 1.5 h

CCOC(=O)c1cn(CCCCCCCCCOS(C)(=O)=O)nn1
Activity_index (Salmonella typhimurium [1]): 1.4 | Activity_index (Salmonella typhimurium [2]): 1 | Activity_index (Salmonella typhimurium [3]): 0.8 | Activity_index (Salmonella typhimurium [4]): 1.3 | Activity_index (Salmonella typhimurium [5]): 1.2 | Activity_index (Salmonella typhimurium [6]): 1 | Activity_index (Salmonella typhimurium [7]): 1.3 | Activity_index (Salmonella typhimurium [8]): 1.8 | Activity_index (Salmonella typhimurium [9]): 1.3 | Activity_index (Salmonella typhimurium [10]): 0.7 | Activity_index (Salmonella typhimurium [11]): 1.7 | Activity_index (Salmonella typhimurium [12]): 1.2 | Activity [13]: Non-toxic | pIC50 (Leishmania amazonensis [14]): 4.43 | pIC50 (Leishmania amazonensis [15]): 4.12 | CC50 at 72 h [16]: 983 µM | Ratio CC50/IC50 [17]: 12.82 | pIC50 [18]: 6.07

CS(=O)(=O)OCCCCCCCCCCCCn1cc(CCCO)nn1
Activity [19]: Non-toxic | pIC50 (Leishmania amazonensis [14]): 4.54 | pIC50 (Leishmania amazonensis [15]): 4.85 | CC50 at 72 h [16]: 163 µM | Ratio CC50/IC50 [17]: 11.47 | pIC50 [18]: 5.09 | Activity_index (Salmonella typhimurium [20]): 1.2 | Activity_index (Salmonella typhimurium [21]): 1.1 | Activity_index (Salmonella typhimurium [22]): 1.3 | Activity_index (Salmonella typhimurium [23]): 1.1 | Activity_index (Salmonella typhimurium [24]): 1.1 | Activity_index (Salmonella typhimurium [25]): 0.8 | Activity_index (Salmonella typhimurium [26]): 0.9 | Activity_index (Salmonella typhimurium [27]): 0.9 | Activity_index (Salmonella typhimurium [28]): 0.9 | Activity_index (Salmonella typhimurium [29]): 1.1 | Activity_index (Salmonella typhimurium [30]): 1.1 | Activity_index (Salmonella typhimurium [31]): 1.1 | Activity_index (Salmonella typhimurium [32]): 1.4
